Results as given in paper PMC9604483, “Crystal Structure of CYP3A4 Complexed with Fluorol Identifies the Substrate Access Channel as a High-Affinity Ligand Binding Site” (International Journal of Molecular Sciences, 2022).
Like-named read-outs stand apart in the source and are kept apart here.

What was measured:
CYP3A4 = CYP3A4 (Homo sapiens, UniProt P08684); test: Progesterone binding to CYP3A4 (authors' estimate of Kd)
Description: Equal amounts of DMSO were added to the protein solutions to avoid buffer-related changes in fluorol emission. Fluorescence changes were monitored with λex of 455 nm and a 495 nm cutoff emission filter. […] Kinetics were analyzed using the Igor Pro software (WaveMetrics, Oswego, OR, USA).

WT CYP3A4 = biological target: T1, WT CYP3A4 (Homo sapiens, UniProt P08684); test: Equilibrium absorbance titrations of CYP3A4 with progesterone; format: binding
T1 construct: made in house
T1 sequence (P08684 with tags, fused parts or gaps): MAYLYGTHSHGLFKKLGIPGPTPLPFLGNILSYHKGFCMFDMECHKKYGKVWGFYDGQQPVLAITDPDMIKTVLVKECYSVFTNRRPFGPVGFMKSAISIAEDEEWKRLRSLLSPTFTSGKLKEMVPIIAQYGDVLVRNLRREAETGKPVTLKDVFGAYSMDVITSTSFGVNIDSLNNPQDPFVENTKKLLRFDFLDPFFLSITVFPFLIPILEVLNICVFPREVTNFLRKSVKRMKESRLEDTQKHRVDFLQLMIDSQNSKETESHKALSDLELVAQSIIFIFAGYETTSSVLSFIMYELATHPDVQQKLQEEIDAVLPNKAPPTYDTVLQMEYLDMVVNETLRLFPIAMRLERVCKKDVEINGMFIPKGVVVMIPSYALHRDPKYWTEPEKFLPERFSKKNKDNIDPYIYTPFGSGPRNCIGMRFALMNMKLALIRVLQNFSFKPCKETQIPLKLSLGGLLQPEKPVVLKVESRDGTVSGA

T224A CYP3A4 = biological target: T2, T224A CYP3A4 (Homo sapiens, UniProt P08684, T224A); test: as above; format: binding
T2 construct: made in house
T2 sequence (P08684 with tags, fused parts or gaps T224A): as the sequence (P08684 with tags, fused parts or gaps) above, with T204A counted along it

CYP3A4, sequence (P08684 whole entry): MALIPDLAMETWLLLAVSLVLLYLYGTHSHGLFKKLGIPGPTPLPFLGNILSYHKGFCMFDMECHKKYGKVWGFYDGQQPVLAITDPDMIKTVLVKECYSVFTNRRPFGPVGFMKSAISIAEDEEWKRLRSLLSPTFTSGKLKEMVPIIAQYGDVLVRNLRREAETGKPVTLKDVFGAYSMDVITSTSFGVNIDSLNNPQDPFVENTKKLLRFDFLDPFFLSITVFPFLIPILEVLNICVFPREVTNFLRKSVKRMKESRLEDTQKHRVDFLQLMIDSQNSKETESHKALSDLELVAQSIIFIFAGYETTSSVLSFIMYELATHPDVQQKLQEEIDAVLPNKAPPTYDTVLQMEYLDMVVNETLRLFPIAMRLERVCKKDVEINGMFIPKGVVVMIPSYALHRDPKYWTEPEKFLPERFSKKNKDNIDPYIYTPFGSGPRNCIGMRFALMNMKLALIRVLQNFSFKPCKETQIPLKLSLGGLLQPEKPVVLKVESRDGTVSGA

## CC(=O)[C@H]1CC[C@H]2[C@@H]3CCC4=CC(=O)CC[C@]4(C)[C@H]3CC[C@]12C [progesterone]
CYP3A4; human
  Kd: 45 µM
CYP3A4; our estimate, read-out: Kd, high-affinity site
  Kd: 5 µM
WT CYP3A4; 2 μM WT CYP3A4, sigmoidal fitting
  S50 (concentration at half saturation): 32 ± 2 µM
WT CYP3A4; end of titration, WT
  High-spin content in PRG-bound CYP3A4: 71%
T224A CYP3A4; 2 μM T224A CYP3A4
  Hill coefficient (nH): 1.37
T224A CYP3A4; 2 μM T224A CYP3A4, sigmoidal fitting
  S50 (concentration at half saturation): 25 ± 4 µM
T224A CYP3A4; PRG-bound, T224A vs WT
  Decrease in the high-spin content on elimination of Thr224: 9%
T224A CYP3A4; end of titration, T224A
  High-spin content in PRG-bound CYP3A4: 62%
